Source: patent US20050154034A1, “Methods of using zonisamide as an adjunctive therapy for partial seizures” (Eisai Co., Ltd., priority 2004, published 2005)

What was measured:
[1] = Pharmacovigilance review of rhabdomyolysis/CPK elevation in zonisamide-treated patients; type: in vivo, human patients (U.S. and Japan)
Text: The pharmacovigilance data that were collected, reviewed and analyzed provided the following information in respect of the incidence of rhabdomyolysis/CPK elevation in the zonisamide-treated patient population. To date, a total of 10 cases fulfill the criteria of potential rhabdomyolysis cases. These 10 cases were reviewed in detail for evaluation of possible safety signals. All 10 cases fulfill serious criteria. Of these 10 cases, seven (7) cases were reported as rhabdomyolysis and three (3) cases were reported as CPK increase.
Of the seven (7) rhabdomyolysis cases, six (6) are verbatim cases from Dainippon and one (1) originates in the U.S. Of the seven (7) cases, three (3) were pediatric cases and four (4) were adult cases.
Of the seven (7) rhabdomyolysis cases, two (2) cases have strong confounding factors, but the possibility of zonisamide involvement cannot be completely excluded. Two (2) cases have moderate confounding factors, and zonisamide involvement may be possible.
Of the three (3) cases of CPK increase, one (1) is a verbatim report from Dainippon, and two (2) originated from the U.S. Of the three (3) cases, two are pediatric patients and one is an adult. Of these three (3) cases, two (2) recovered and the outcome of the third is unknown.
Of the three (3) cases of CPK increase, one (1) case has strong confounding factors, but the possibility of zonisamide involvement cannot be completely excluded. One (1) case has weak confounding factors, and zonisamide involvement may be possible.
Estimates of zonisamide exposure, based upon retail and mail order prescriptions, indicate that the number of unique patients taking zonisamide capsules in the U.S. is about 37,276 (total prescriptions per year/average number of prescriptions per patient per year less a calculated percentage decrease based on estimated annual dropouts) in the time between approval in 2000 and December 2002 . Hospital patient data for that period, however, is not available and is not reflected in the estimates. Estimates of patient exposure for Japan indicate that the number of unique patients taking zonisamide is about 1,185,177 for time beginning with the approval in Japan through December 2002. Japanese data includes prescription and hospital patient data. Exposure from clinical trials are not included in the U.S. or Japanese exposure estimates. Based on these statistics, the estimated number of patients exposed to zonisamide in the U.S. and Japan is 1,222,453 unique patients. This is a rather conservative estimate, assuring that the number of patients actually exposed to zonisamide is unlikely to be higher than the estimate provided. Similarly, the incidences of rhabdomyolysis estimated herein are unlikely to be higher than calculated. […] For the one (1) case reported in Japan, this amounts to an estimated incidence of 1:1,185,177 based upon estimated Japanese exposure. For the one (1) case reported in the US, this represents an estimated incidence of 1:37,276 based upon estimated US exposure. These two (2) cases of CPK increase represent a combined estimated incidence of 1:611,227 based upon the combined estimates of Japanese and US exposure. Thus, the overall estimated incidences of elevated CPK are 1:395,059 for Japanese cases, 1:18,638 for US cases and 1:244,491 for both Japanese and US cases, based on combining the reported cases of rhabdomyolysis and elevated CPK (the standard surrogate marker of muscle breakdown and typically seen in rhabdomyolysis).
Combining all the above cases of rhabdomyolysis and CPK increase, the estimated incidences of any patient who has experienced an elevated CPK (marker of muscle breakdown) are 1:400,000 for Japanese cases and 1:18,000 for US cases.

[2] = test system: sodium channels; conditions: in vitro; cited from earlier work
[3] = test system: T-type Ca2+ currents; conditions: in vitro; cited from earlier work
[4] = test system: GABA/benzodiazepine receptor ionophore complex; conditions: in vitro; cited from earlier work
[5] = test system: cultured mouse spinal cord neurons; conditions: 10-30 μg/mL, cited from earlier work
[6] = test system: rat hippocampal slices; conditions: 10-30 μg/mL; cited from earlier work
[7] = test system: dopaminergic and serotonergic neurotransmission; conditions: in vivo microdialysis; cited from earlier work
[8] = cited from earlier work
[9] = test system: carbonic anhydrase; conditions: fraction of the inhibition of acetazolamide; cited from earlier work

SMILES: NS(=O)(=O)Cc1noc2ccccc12 [zonisamide, 1,2-benzisoxazole-3-methanesulfonamide]
- CPK increase cases recovered ([1]; human, in vivo): 2 cases
- cases fulfilling the criteria of potential rhabdomyolysis cases ([1]; human, in vivo): 10 cases
- cases of CPK increase with no or only weak confounding factors present ([1]; human, in vivo): 2 cases
- cases of rhabdomyolysis with no or only weak confounding factors present ([1]; human, in vivo): 3 cases
- cases reported as CPK increase ([1]; human, in vivo): 3 cases
- cases reported as rhabdomyolysis ([1]; human, in vivo): 7 cases
- combined estimated incidence of CPK increase ([1]; human, in vivo): 1:611,227
- rhabdomyolysis cases not recovered ([1]; human, in vivo): 2 cases
- rhabdomyolysis cases recovered ([1]; human, in vivo): 2 cases
- rhabdomyolysis cases recovering at time of report ([1]; human, in vivo): 1 cases
- time to development of CPK increase after initiation of zonisamide treatment ([1]; human, in vivo): two (2) days and six (6) weeks
- time to development of rhabdomyolysis after initiation of zonisamide treatment ([1]; human, in vivo): two (2) weeks and nine (9) years
- rhabdomyolysis cases with fatal outcome ([1]; of 7 rhabdomyolysis cases): 2 cases
- effect on sodium channels [2]: blocks sodium channels
- effect on voltage-dependent, transient inward currents (T-type Ca2+ currents) [3]: reduces
- binding to GABA/benzodiazepine receptor ionophore complex [4]: binds to the GABA/benzodiazepine receptor ionophore complex in an allosteric fashion
- changes in chloride flux [4]: does not produce changes in chloride flux
- postsynaptic GABA or glutamate responses ([5]; cultured mouse spinal cord neurons): without affecting
- synaptically-driven electrical activity [5]: suppresses
- neuronal or glial uptake of [3H]-GABA [6]: without affecting
- dopaminergic and serotonergic neurotransmission [7]: facilitates
- frequency of side effects by dose ([8]; doses of 300 mg per day and above): more frequent
- half-life ([8]; human, in vivo): long half-life
- hepatic enzyme induction ([8]; human, in vivo): not known to be a hepatic enzyme inducer
- time required to achieve steady state levels ([8]; upon reaching a stable dose or following dosage adjustment): up to two weeks
- carbonic anhydrase inhibition compared to acetazolamide [9]: 1/50
